Columns and labels:
Type in all cases: in vivo
Corn [1] = test: Pre-emergence treatment, phytotoxicity to corn; conditions: 500 g/ha, 4 weeks after spraying, scale 0 to 10 (0: no effects, 10: complete death)
How it was run: (§1)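 Rated 0–10 at 4 weeks after a pre-emergence spray of 62.5–500 g/ha in 300 L/ha spray volume, applied to soil sown with crop and grass weed seeds.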

Soybean [2] = test: Pre-emergence treatment, phytotoxicity to soybean; conditions: 500 g/ha, 4 weeks after spraying, scale 0 to 10 (0: no effects, 10: complete death)
How it was run: as §1

Cotton [3] = test: Pre-emergence treatment, phytotoxicity to cotton; conditions: 500 g/ha, 4 weeks after spraying, scale 0 to 10 (0: no effects, 10: complete death)
How it was run: as §1

Wheat [4] = test: Pre-emergence treatment, phytotoxicity to wheat; conditions: 500 g/ha, 4 weeks after spraying, scale 0 to 10 (0: no effects, 10: complete death)
How it was run: as §1

Rice [5] = test: Pre-emergence treatment, phytotoxicity to rice; conditions: 500 g/ha, 4 weeks after spraying, scale 0 to 10 (0: no effects, 10: complete death)
How it was run: as §1

Echinochloa crusgalli [6] = test: Pre-emergence treatment, herbicidal efficacy on barnyardgrass; conditions: 4 weeks after spraying
How it was run: as §1

Digitaria sanguinalis [7] = test: Pre-emergence treatment, herbicidal efficacy on large crabgrass; conditions: 4 weeks after spraying, scale 0 to 10
How it was run: as §1

Poa annua [8] = test: Pre-emergence treatment, herbicidal efficacy on annual bluegrass; conditions: 4 weeks after spraying, scale 0 to 10
How it was run: as §1

Alopecurus myosuroides [9] = test: Pre-emergence treatment, herbicidal efficacy on blackgrass; conditions: 4 weeks after spraying, scale 0 to 10
How it was run: as §1

Corn [10] = test: Post-emergence treatment, phytotoxicity to corn; conditions: post-emergence (about 3 leaf stage), 1,000 g/ha, 4 weeks after spraying, scale 0 to 10 (0: no effects, 10: complete death)
How it was run: (§2)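 Values are visual 0–10 ratings (0 no effect, 10 complete death) of weed control or crop phytotoxicity taken four weeks after a post-emergence spray. Plants at about 3-leaf stage received 1,000, 500, 250 or 125 g/ha at 300 L/ha.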

Soybean [11] = test: Post-emergence treatment, phytotoxicity to soybean; conditions: post-emergence (about 3 leaf stage), 1,000 g/ha, 4 weeks after spraying, scale 0 to 10 (0: no effects, 10: complete death)
How it was run: as §2

Cotton [12] = test: Post-emergence treatment, phytotoxicity to cotton; conditions: post-emergence (about 3 leaf stage), 1,000 g/ha, 4 weeks after spraying, scale 0 to 10 (0: no effects, 10: complete death)
How it was run: as §2

Wheat [13] = test: Post-emergence treatment, phytotoxicity to wheat; conditions: post-emergence (about 3 leaf stage), 1,000 g/ha, 4 weeks after spraying, scale 0 to 10 (0: no effects, 10: complete death)
How it was run: as §2

Rice [14] = test: Post-emergence treatment, phytotoxicity to rice; conditions: post-emergence (about 3 leaf stage), 1,000 g/ha, 4 weeks after spraying, scale 0 to 10 (0: no effects, 10: complete death)
How it was run: as §2

Echinochloa crusgalli [15] = test: Post-emergence treatment, herbicidal efficacy on barnyardgrass; conditions: 4 weeks after spraying, scale 0 to 10
How it was run: as §2

Digitaria sanguinalis [16] = test: Post-emergence treatment, herbicidal efficacy on large crabgrass; conditions: 4 weeks after spraying, scale 0 to 10
How it was run: as §2

Poa annua [17] = test: Post-emergence treatment, herbicidal efficacy on annual bluegrass; conditions: 4 weeks after spraying, scale 0 to 10
How it was run: as §2

Alopecurus myosuroides [18] = test: Post-emergence treatment, herbicidal efficacy on blackgrass; conditions: 4 weeks after spraying, scale 0 to 10
How it was run: as §2

[19] = test system: grass weeds including barnyardrass, large crabgrass, and annual bluegrass; test: Pre-emergence treatment, grass weeds overall; conditions: relative to reference compounds
Method: (§3) A rectangular plastic pot having a surface area of 300 cm^2 was filled with sandy loam soil and mixed bed soil which were mixed at a ratio of 1:1, and then, barnyardrass (Echinochloa crusgalli), large crabgrass (Digitaria sanguinalis), blackgrass (Alopecurus myosuroides), and annual bluegrass (Poa annua), which are grass weeds, were seeded thereto. In a pot that was prepared as described above, seeds of corn, soybean, cotton, wheat, and rice were seeded. The pots were irrigated, and one day after, chemicals were sprayed thereto. The spraying was performed by using a track sprayer (R&D Sprayer, USA) equipped with a Teejet 8002 (Spraying Systems Co., USA) nozzle, and a spraying amount was adjusted at 300 L/ha. A spraying solution was prepared by dissolving test materials or references in acetone and adding the same amount of 0.2%(v/v) tween 20 aqueous solution thereto. Application rates were 500, 250, 125, and 62.5 g/ha. The pots were placed in a greenhouse in which during day, the temperature was maintained at a temperature of 25 to 30° C., and during night, the temperature was maintained at a temperature of 15 to 25° C., and the pots were periodically irrigated. Four weeks after the spraying the test materials or References, effects and phytotoxicity of the respective weeds and crops were evaluated in a scale of 0 to 10 (0: no effects, 10: complete death), and results thereof are shown in Table 4 below.

[20] = test system: barnyardgrass, large crabgrass, and annual bluegrass; test: Post-emergence treatment, grass weeds overall; conditions: 250 g/ha
Method: as §3
Pots containing crops and weeds were prepared in the same manner as in Example 7, and then, in the second week in which crops and weeds entered into about 3 leaf stage, the test materials and the references were sprayed thereto in the same manner as described above. The rates were 1,000, 500, 250, and 125 g/ha. Four weeks after the spraying of the test materials or the references, herbicidal efficacy and phytotoxicity to the respective weeds and crops were evaluated in a scale of 0 to 10 (0: no effects, 10: complete death).

SMILES: CC1(COCc2c(F)cccc2F)CC(c2ccccc2C(F)(F)F)=NO1 (centres unmarked) [Compound 5, 5-((2,6-difluorobenzyloxy)methyl)-5-methyl-3-(2-(trifluoromethyl)phenyl)-4,5-dihydroisoxazole]
- Phytotoxicity, Corn (Corn [1]): 3
- Phytotoxicity, Soybean (Soybean [2]): 2
- Phytotoxicity, Cotton (Cotton [3]): 1
- Phytotoxicity, Wheat (Wheat [4]): 0
- Phytotoxicity, Rice (Rice [5]): 0
- Herbicidal efficacy, Echinochloa crusgalli (Echinochloa crusgalli [6]; 62.5 g/ha, scale 0 to 10): 10
- Herbicidal efficacy, Echinochloa crusgalli (Echinochloa crusgalli [6]; 125 g/ha, scale 0 to 10): 10
- Herbicidal efficacy, Echinochloa crusgalli (Echinochloa crusgalli [6]; 250 g/ha, scale 0 to 10): 10
- Herbicidal efficacy, Echinochloa crusgalli (Echinochloa crusgalli [6]; 500 g/ha, scale 0 to 10 (0: no effects, 10: complete death)): 10
- Herbicidal efficacy, Digitaria sanguinalis (Digitaria sanguinalis [7]; 62.5 g/ha): 10
- Herbicidal efficacy, Digitaria sanguinalis (Digitaria sanguinalis [7]; 125 g/ha): 10
- Herbicidal efficacy, Digitaria sanguinalis (Digitaria sanguinalis [7]; 250 g/ha): 10
- Herbicidal efficacy, Digitaria sanguinalis (Digitaria sanguinalis [7]; 500 g/ha): 10
- Herbicidal efficacy, Poa annua (Poa annua [8]; 62.5 g/ha): 9
- Herbicidal efficacy, Poa annua (Poa annua [8]; 125 g/ha): 9
- Herbicidal efficacy, Poa annua (Poa annua [8]; 250 g/ha): 9
- Herbicidal efficacy, Poa annua (Poa annua [8]; 500 g/ha): 10
- Herbicidal efficacy, Alopecurus myosuroides (Alopecurus myosuroides [9]; 62.5 g/ha): 5
- Herbicidal efficacy, Alopecurus myosuroides (Alopecurus myosuroides [9]; 125 g/ha): 6
- Herbicidal efficacy, Alopecurus myosuroides (Alopecurus myosuroides [9]; 250 g/ha): 7
- Herbicidal efficacy, Alopecurus myosuroides (Alopecurus myosuroides [9]; 500 g/ha): 8
- Phytotoxicity, Corn (Corn [10]): 5
- Phytotoxicity, Soybean (Soybean [11]): 2
- Phytotoxicity, Cotton (Cotton [12]): 0
- Phytotoxicity, Wheat (Wheat [13]): 0
- Phytotoxicity, Rice (Rice [14]): 0
- Herbicidal efficacy, Echinochloa crusgalli (Echinochloa crusgalli [15]; post-emergence, 125 g/ha): 6
- Herbicidal efficacy, Echinochloa crusgalli (Echinochloa crusgalli [15]; post-emergence, 250 g/ha): 8
- Herbicidal efficacy, Echinochloa crusgalli (Echinochloa crusgalli [15]; post-emergence, 500 g/ha): 10
- Herbicidal efficacy, Echinochloa crusgalli (Echinochloa crusgalli [15]; post-emergence, 1,000 g/ha): 10
- Herbicidal efficacy, Digitaria sanguinalis (Digitaria sanguinalis [16]; post-emergence, 125 g/ha): 6
- Herbicidal efficacy, Digitaria sanguinalis (Digitaria sanguinalis [16]; post-emergence, 250 g/ha): 8
- Herbicidal efficacy, Digitaria sanguinalis (Digitaria sanguinalis [16]; post-emergence, 500 g/ha): 10
- Herbicidal efficacy, Digitaria sanguinalis (Digitaria sanguinalis [16]; post-emergence, 1,000 g/ha): 10
- Herbicidal efficacy, Poa annua (Poa annua [17]; post-emergence, 125 g/ha): 6
- Herbicidal efficacy, Poa annua (Poa annua [17]; post-emergence, 250 g/ha): 7
- Herbicidal efficacy, Poa annua (Poa annua [17]; post-emergence, 500 g/ha): 8
- Herbicidal efficacy, Poa annua (Poa annua [17]; post-emergence, 1,000 g/ha): 10
- Herbicidal efficacy, Alopecurus myosuroides (Alopecurus myosuroides [18]; post-emergence, 125 g/ha): 1
- Herbicidal efficacy, Alopecurus myosuroides (Alopecurus myosuroides [18]; post-emergence, 250 g/ha): 4
- Herbicidal efficacy, Alopecurus myosuroides (Alopecurus myosuroides [18]; post-emergence, 500 g/ha): 5
- Herbicidal efficacy, Alopecurus myosuroides (Alopecurus myosuroides [18]; post-emergence, 1,000 g/ha): 9
- efficacy stronger than the References [19]: about 8 times
- suppression of barnyardgrass, large crabgrass, and annual bluegrass [20]: greatly suppressed
